Experimental data from patent US4221808A, “Novel antihypertensive agent” (Richardson-Merrell Inc., priority 1979, dated 1980).

What was measured:
α-adrenergic receptor = test: α-Adrenergic receptor blocking activity in isolated rabbit aortic strip, norepinephrine as agonist; format: cell-based; settings: contractile response
Protocol: α-Adrenergic receptor blocking activity was determined in vitro by performing cumulative dose-response experiments in the isolated rabbit aortic strip preparation using norepinephrine as the agonist. The contractile response of the rabbit strip preparation in the presence of logarithmically increasing concentrations of the compounds being tested were expressed as percent of the maximal attainable response.

[1] = tested on: spontaneously hypertensive rats (SHR); test: Antihypertensive activity in spontaneously hypertensive rats, systolic blood pressure by tail cuff; format: in vivo, rat; settings: oral dose of 50 mg/kg
Protocol: Antihypertensive activity was determined in spontaneously hypertensive rats (SHR) of the Okomotor Aoki strain. Systolic blood pressure of the SHR was measured from the caudal artery by means of an indirect method utilizing a photocell transducer/tail cuff occluder system. Time response relationships were determined for each compound following an oral dose of 50 mg/kg. Data were expressed as mm Hg decrease from control values. Statistical significance was determined using a 2 tailed "t" test comparing drug treatment response values to those obtained from concurrent vehicle treated animals.

β-adrenergic receptor [2] = target: T1, β-adrenergic receptor (Cavia porcellus, UniProt H0W3H1); test: β-Adrenergic receptor blocking activity in isolated guinea pig atria, isoproterenol as agonist; format: cell-based; settings: isolated guinea pig atria; agonist isoproterenol; increase in rate; read-out: pA2 for β-adrenergic receptor blocking activity (converted)
T1 construct: isolated guinea pig atria preparation; from tissue; host or cells: guinea pig atria (isolated)
Protocol: (§1) β-Adrenergic receptor blocking activity was determined in vitro by performing cumulative dose-response experiments in the isolated guinea pig atria preparation using isoproterenol as the agonist. The response (increase in rate) of the guinea pig atria preparation in the presence of logarithmically increasing concentration of the compounds being tested were expressed as percent of the maximal attainable response. Relative antagonistic potency was expressed as a pA2 value, as defined above.

β-adrenergic receptor [3] = test: as above; format: cell-based; settings: from pA2 values, guinea pig atria (β) vs rabbit aortic strip (α)
Protocol: as §1

T1 sequence (H0W3H1 1-470): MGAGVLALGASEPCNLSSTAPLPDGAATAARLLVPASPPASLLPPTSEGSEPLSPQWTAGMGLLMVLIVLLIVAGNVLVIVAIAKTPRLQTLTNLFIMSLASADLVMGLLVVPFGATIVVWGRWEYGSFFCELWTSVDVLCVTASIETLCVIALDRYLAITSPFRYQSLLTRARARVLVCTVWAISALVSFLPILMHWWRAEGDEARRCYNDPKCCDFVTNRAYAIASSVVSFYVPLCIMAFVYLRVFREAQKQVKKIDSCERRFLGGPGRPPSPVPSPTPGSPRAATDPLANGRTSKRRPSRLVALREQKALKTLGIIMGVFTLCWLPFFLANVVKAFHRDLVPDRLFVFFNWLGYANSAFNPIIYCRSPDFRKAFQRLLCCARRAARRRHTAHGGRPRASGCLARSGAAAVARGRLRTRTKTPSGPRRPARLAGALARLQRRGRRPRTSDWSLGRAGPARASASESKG

| Kb (β-adrenergic receptor [2]) [nM] | Structure (SMILES) | pA2 for α-adrenergic receptor blocking activity (α-adrenergic receptor) | decrease in systolic blood pressure from control values ([1]; after 1 hour) | decrease in systolic blood pressure from control values ([1]; after 4 hours) | ratio of β/α blocking activity (β-adrenergic receptor [3]) |
| --- | --- | --- | --- | --- | --- |
|  | CC(C)NCC(O)COc1cccc2ccccc12 (stereo not shown) [propranolol] | < 5 | did not lower blood pressure significantly | did not lower blood pressure significantly |  |
| 15.1 | CC(CCc1ccc2c(c1)OCO2)NCC(O)c1ccc(O)c(C(N)=O)c1.Cl (stereo not shown) [compound 2, 5-[2-[[3-(1,3-benzodioxol-5-yl)-1-methylpropyl]amino]-1-hydroxyethyl]-2-hydroxybenzamide hydrochloride] | 6.08 | 71 mm Hg | 64 mm Hg | 55 |
| 3.47 | COc1ccc(C(O)CNC(C)CCc2ccc3c(c2)OCO3)cc1C(N)=O.Cl (stereo not shown) [compound 1, 5-[2-[[3-(1,3-Benzodioxol-5-yl)-1-methylpropyl]amino]-1-hydroxyethyl]-2-methoxybenzamide hydrochloride] | 5.14 | 42 mm Hg | 67 mm Hg | > 2089 |
| > 10000 | Cc1ccc(N(CC2=NCCN2)c2cccc(O)c2)cc1 [phentolamine] |  | 62 mm Hg | 60 mm Hg |  |
